The values below come from patent US11066447B2, “Aureobasidium derivatives and methods of synthesis” (AureoGen Biosciences, Inc., priority 2016, dated 2021).

≈ marks a conversion by molar mass, not a printed value. Read-outs that look alike come from different tables or passages of the source. Numbered stars: 1 amine (or outer) side, 2 acyl side, 3 side chain; on linkers, the order of the positions; unused ones are H or OH. Square brackets hold non-standard residues; d marks the D form. Peptide text beside a SMILES is read from it. X13 = CN([C@@H](Cc1cccc(-c2ccc(N3CCN(C(=O)OC(C)(C)C)CC3)nc2)c1)C(=O)[*:2])[*:1]; X21 = CC1CCN(c2cc(-c3cccc(C[C@@H](C(=O)[*:2])N(C)[*:1])c3)ccn2)CC1; X15 = CN([C@@H](Cc1cccc(-c2ccc(N3CCOCC3)nc2)c1)C(=O)[*:2])[*:1]; X17 = CN([C@@H](Cc1cccc(-c2cnc3ccccc3c2)c1)C(=O)[*:2])[*:1]; X22 = CN([C@@H](Cc1cccc(-c2cncc3ccccc23)c1)C(=O)[*:2])[*:1]; Hmp(2R,3S) = CC[C@H](C)[C@@H](O)C(=O)O; NMeVal(β-OH) = CN[C@H](C(=O)O)C(C)(C)O; NMeV = CN[C@H](C(=O)O)C(C)C Bounds are passed on as bounds.

Assay [1] relates to C. parapsilosis MMX 2323 ATCC 22019. As to the kind of experiment: MIC assay (CLSI microdilution). The format is cell-based, Candida parapsilosis. To be noted: read-out: MIC. The essentials: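 Broth microdilution MIC testing of Candida parapsilosis ATCC 22019 followed CLSI methods in RPMI-1640, with or without 0.002% Tween-80. Yeast grown 48 hours at 35° C on Sabouraud dextrose agar was suspended to a 0.5 McFarland standard and diluted 1:100 to roughly 0.5-2.5×10^3 CFU/mL. The MIC was the lowest concentration preventing visible growth.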
(In broth dilution the organism is exposed to a series of concentrations in liquid medium.)

For assay [2], the system named is A. flavus MMX 5948. In words: MIC/MEC assay (CLSI microdilution). The format is cell-based. To be noted: Aspergillus flavus, MMX5948, 48 h; for minimal effective concentration: RPMI plus 0.002% Tween-80; for MIC: RPMI plus 0.002% Tween-80, read-out: MIC. In a few lines:
(§1)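 Test agents were assayed by CLSI broth microdilution in Tween-80-supplemented (0.002%) RPMI-1640 against spore inocula of approximately 0.2-2.5×10^4 CFU/mL. Strain MMX 5280 was run both with and without Tween-80.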

Assay [3] concerns A. fumigatus from Aureogen. As to the kind of experiment: MIC/MEC assay (CLSI microdilution). The format is cell-based. Particulars: Aspergillus fumigatus, 48 h; for minimal effective concentration: RPMI plus 0.002% Tween-80; for MIC: RPMI plus 0.002% Tween-80, read-out: MIC. In a few lines:
as §1

Assay [4] concerns A. fumigatus MMX 6781 ATCC MYA-4609. As to the kind of experiment: MIC/MEC assay (CLSI microdilution). The class given is cell-based. Particulars: Aspergillus fumigatus; for MIC: 48 h, RPMI plus 0.002% Tween-80, read-out: MIC; for minimal effective concentration: RPMI plus 0.002% Tween-80, 48 hr. The essentials: as §1
Assay [5] relates to A. fumigatus MMX 6782 ATCC 13073. In words: MIC/MEC assay (CLSI microdilution). The class given is cell-based. Particulars: Aspergillus fumigatus, ATCC13073, 48 h; for minimal effective concentration: RPMI plus 0.002% Tween-80, read-out: MEC; for MIC: RPMI plus 0.002% Tween-80, read-out: MIC. In a few lines:
as §1

Assay [6] has as its system A. fumigatus MMX 5944. In words: MIC/MEC assay (CLSI microdilution). The format is cell-based. Particulars: Aspergillus fumigatus, MMX5944, 48 h; for minimal effective concentration: RPMI plus 0.002% Tween-80; for MIC: RPMI plus 0.002% Tween-80, read-out: MIC. The essentials: as §1
In assay [7] the test system is A. niger MMX 0624 ATCC 16888. In words: MIC/MEC assay (CLSI microdilution). Particulars: for minimal effective concentration: RPMI plus 0.002% Tween-80, read-out: MEC. The format is cell-based. The essentials:
as §1

Assay [8] relates to A. fumigatus MMX 5280 ATCC MYA-3626. As to the kind of experiment: MIC/MEC assay (CLSI microdilution). The class given is cell-based, Aspergillus fumigatus. Particulars: Aspergillus fumigatus, 48 h. In a few lines: as §1
Assay [9] relates to C. neoformans MMX 0634 ATCC 90112. In words: MIC assay (CLSI microdilution). The format is cell-based. To be noted: Cryptococcus neoformans, ATCC90112, RPMI plus 0.002% Tween-80; read-out: MIC.
Assay [10] relates to C. albicans MMX 2000 ATCC 10231. As to the kind of experiment: MIC assay (CLSI microdilution). The format is cell-based. To be noted: Candida albicans, ATCC10231, RPMI plus 0.002% Tween-80; read-out: MIC.
[11] abbreviates: ATCC22019, RPMI plus 0.002% Tween-80.
Setting [12] is: Aspergillus niger, ATCC16888, 48 h.
[13] abbreviates: Aspergillus niger, ATCC16888, 48 h, RPMI plus 0.002% Tween-80, read-out: MIC.
Where [14] appears, read: RPMI plus 0.002% Tween-80, read-out: MEC.
Setting [15] is: RPMI plus 0.002% Tween-80, read-out: MIC.
Setting [16] is: Without Tween-80, read-out: MEC.
Where [17] appears, read: Without Tween-80, read-out: MIC.
Setting [18] is: RPMI plus 0.002% Tween-80, 48 hr.

Usually MIC stands for the lowest concentration found to suppress growth. Consider `CC[C@H](C)[C@@H]1NC(=O)[C@@H]2CCCN2C(=O)[C@H](Cc2cccc(-c3ccnc(N4CCC(C)CC4)c3)c2)N(C)C(=O)[C@H](Cc2ccccc2)NC(=O)[C@H](C(C)C)N(C)C(=O)[C@@H]([C@@H](C)CC)OC(=O)[C@H](C(C)(C)O)N(C)C(=O)[C@H](CC(C)C)NC(=O)[C@H](C(C)C)N(C)C1=O` [Compound 23] (cyclo(F[X21]PI[NMeV]L[NMeVal(β-OH)][Hmp(2R,3S)][NMeV])), for which the MIC was 0.12 µg/mL in assay [1] (setting [11]); 1 µg/mL (≈ 0.784 µM) in [1] (ATCC22019, Without Tween-80); more than 64 µg/mL in assay [2]; more than 64 µg/mL in [3]; more than 64 µg/mL in assay [4]; more than 64 µg/mL in assay [5]. The MIC was more than 64 µg/mL in [6]; 0.25 µg/mL in assay [7] (setting [13]); more than 64 µg/mL in [8] (setting [15]); more than 64 µg/mL in [8] (setting [17]); 0.25 µg/mL in assay [9]; 0.06 µg/mL in assay [10]. Further, the minimal effective concentration in assay [2] is more than 64 µg/mL; in [3] it was more than 64 µg/mL; in [4], more than 64 µg/mL; in assay [5], more than 64 µg/mL; in [6] it was more than 64 µg/mL; in assay [7] (setting [12]) it was 0.12 µg/mL. For the same compound, the minimal effective concentration in [8] (setting [14]) and in assay [8] (setting [16]) was more than 64 µg/mL each time.
Consider `CC[C@H](C)[C@@H]1NC(=O)[C@@H]2CCCN2C(=O)[C@H](Cc2cccc(-c3ccc(N4CCOCC4)nc3)c2)N(C)C(=O)[C@H](Cc2ccccc2)NC(=O)[C@H](C(C)C)N(C)C(=O)[C@@H]([C@@H](C)CC)OC(=O)[C@H](C(C)(C)O)N(C)C(=O)[C@H](CC(C)C)NC(=O)[C@H](C(C)C)N(C)C1=O` [Compound 24] (cyclo(F[X15]PI[NMeV]L[NMeVal(β-OH)][Hmp(2R,3S)][NMeV])), for which the MIC in [1] (setting [11]) was 0.12 µg/mL; in [1] (ATCC22019, Without Tween-80) it was 1 µg/mL (≈ 0.791 µM); in assay [2] it was 0.5 µg/mL; in assay [3] it was more than 64 µg/mL; in [4] it was more than 64 µg/mL; in assay [5], more than 64 µg/mL. Also, the MIC is more than 64 µg/mL in [6]; 0.25 µg/mL in [7] (setting [13]); more than 64 µg/mL in assay [8] (setting [15]); more than 64 µg/mL in [8] (setting [17]); 0.5 µg/mL in assay [9]; 0.03 µg/mL in assay [10]. In addition, the minimal effective concentration in [2] was 0.25 µg/mL; in assay [3] it was more than 64 µg/mL; in assay [4], more than 64 µg/mL; in [5], more than 64 µg/mL; in [6], more than 64 µg/mL; in assay [7] (setting [12]) it was 0.25 µg/mL. Also, the minimal effective concentration in assay [8] (setting [14]) and in [8] (setting [16]) was more than 64 µg/mL throughout.
Turning to `CC[C@H](C)[C@@H]1NC(=O)[C@@H]2CCCN2C(=O)[C@H](Cc2cccc(-c3ccc(N4CCN(C(=O)OC(C)(C)C)CC4)nc3)c2)N(C)C(=O)[C@H](Cc2ccccc2)NC(=O)[C@H](C(C)C)N(C)C(=O)[C@@H]([C@@H](C)CC)OC(=O)[C@H](C(C)(C)O)N(C)C(=O)[C@H](CC(C)C)NC(=O)[C@H](C(C)C)N(C)C1=O` [Compound 26] (cyclo(F[X13]PI[NMeV]L[NMeVal(β-OH)][Hmp(2R,3S)][NMeV])), the MIC is 1 µg/mL in assay [1] (setting [11]); 2 µg/mL (≈ 1.47 µM) in assay [1] (ATCC22019, Without Tween-80); more than 64 µg/mL in assay [2]; more than 64 µg/mL in [3]; more than 64 µg/mL in assay [4]; more than 64 µg/mL in [5]. Further, the MIC in assay [6] was more than 64 µg/mL; in assay [7] (setting [18]), 2/2 μg/mL; in assay [8] (setting [15]), more than 64 µg/mL; in assay [8] (setting [17]), more than 64 µg/mL; in [9] it was 0.25 µg/mL; in [10], 0.12 µg/mL. Also, the minimal effective concentration in assay [2], in [3], in [4], in assay [5], in assay [6] and in assay [8] (setting [14]) was more than 64 µg/mL each time. Besides, the minimal effective concentration in assay [8] (setting [16]) is more than 64 µg/mL. Moreover, the MEC in [7] (setting [18]) is given as 2/2 μg/mL.
Take `CC[C@H](C)[C@@H]1NC(=O)[C@@H]2CCCN2C(=O)[C@H](Cc2cccc(-c3cnc4ccccc4c3)c2)N(C)C(=O)[C@H](Cc2ccccc2)NC(=O)[C@H](C(C)C)N(C)C(=O)[C@@H]([C@@H](C)CC)OC(=O)[C@H](C(C)(C)O)N(C)C(=O)[C@H](CC(C)C)NC(=O)[C@H](C(C)C)N(C)C1=O` [Compound 27] (cyclo(F[X17]PI[NMeV]L[NMeVal(β-OH)][Hmp(2R,3S)][NMeV])): the MIC was 0.12 µg/mL in assay [1] (setting [11]); 1 µg/mL (≈ 0.814 µM) in [1] (ATCC22019, Without Tween-80); 0.5 µg/mL in assay [2]; more than 64 µg/mL in assay [3]; more than 64 µg/mL in assay [4]; more than 64 µg/mL in assay [5]. Also, the MIC is more than 64 µg/mL in [6]; 0.06 µg/mL in [7] (setting [13]); more than 64 µg/mL in assay [8] (setting [15]); more than 64 µg/mL in [8] (setting [17]); 0.12 µg/mL in [9]; 0.015 µg/mL in assay [10]. Also, the minimal effective concentration in assay [2] was 0.12 µg/mL; in assay [3] it was more than 64 µg/mL; in [4] it was more than 64 µg/mL; in assay [5] it was more than 64 µg/mL; in assay [6], more than 64 µg/mL; in [7] (setting [12]), 0.06 µg/mL. Further, the minimal effective concentration in assay [8] (setting [14]) and in assay [8] (setting [16]) was more than 64 µg/mL each time.
Regarding `CC[C@H](C)[C@@H]1NC(=O)[C@@H]2CCCN2C(=O)[C@H](Cc2cccc(-c3cncc4ccccc34)c2)N(C)C(=O)[C@H](Cc2ccccc2)NC(=O)[C@H](C(C)C)N(C)C(=O)[C@@H]([C@@H](C)CC)OC(=O)[C@H](C(C)(C)O)N(C)C(=O)[C@H](CC(C)C)NC(=O)[C@H](C(C)C)N(C)C1=O` [Compound 29] (cyclo(F[X22]PI[NMeV]L[NMeVal(β-OH)][Hmp(2R,3S)][NMeV])), the minimum inhibitory concentration (MIC) in assay [1] (setting [11]) was 0.06 µg/mL; in [1] (ATCC22019, Without Tween-80) it was 1 µg/mL (≈ 0.814 µM); in assay [2], more than 64 µg/mL; in [3], more than 64 µg/mL; in assay [4], more than 64 µg/mL; in assay [5], more than 64 µg/mL. In addition, the MIC in assay [6] was more than 64 µg/mL; in [7] (setting [13]), 0.12 µg/mL; in assay [8] (setting [15]), more than 64 µg/mL; in assay [8] (setting [17]) it was more than 64 µg/mL; in assay [9] it was 0.06 µg/mL; in assay [10] it was 0.008 µg/mL. Also, the minimal effective concentration is more than 64 µg/mL in [2]; more than 64 µg/mL in [3]; more than 64 µg/mL in assay [4]; more than 64 µg/mL in assay [6]; 0.12 µg/mL in [7] (setting [12]); more than 64 µg/mL in assay [8] (setting [14]). Further, the minimal effective concentration in [8] (setting [16]) was more than 64 µg/mL.
